Results: US9518061B2, “Substituted pyrazolylpyrazole derivative and use of same as herbicide” (KYOYU AGRI CO., LTD., priority 2013, dated 2016)

Experiments:
[1] = system: Rice plants; test: Paddy herbicidal activity test, phytotoxicity to transplanted rice; format: in vivo; conditions: rice transplanted in 2.0 leaf stage, 30 days
Procedure: (§1) 1. Paddy Herbicidal Activity Test
(§2) Rice paddy soil was filled into a 1/10000 are pot followed by the addition of suitable amounts of water and chemical fertilizer, kneading, seeding with Echinochloa crus-galli, Monochoria vaginalis and Scirpus juncoides and maintaining in an irrigated state at a water depth of 3 cm.
(§3) Wettable powder of Target Compound (I) shown in Table 1 prepared in compliance with the preparation examples were diluted with a suitable amount of water, rice plants in the 2.0 leaf stage were transplanted during 3.5 leaf stage of Echinochloa crus-galli, and treated by dropping in chemical in the prescribed amount per are using a pipette.
(§4) After treating for 30 days in a glass greenhouse at an average atmospheric temperature of 30° C., the herbicidal efficacy thereof was investigated.
(§5) Evaluation of herbicidal efficacy was carried out by comparing growth inhibition rate (%) with an untreated group, while evaluation of phytotoxicity was carried out by comparing growth inhibition rate (%) with the state of a complete eradication group, and were evaluated at 11 levels indicated below.

[2] = system: Chenopodium album; test: Farming soil treatment test; format: in vivo; conditions: soil surface spray prior to weed growth, 30 days
Procedure: (§6) 2. Farming Soil Treatment Test
(§7) Field soil was filled into a 1/6000 are pot followed by seeding with Digitaria ciliaris, Chenopodium album and Amaranthus retroflexus and covering with soil.
(§8) Wettable powder of compounds of formula (D shown in Table 1 prepared in compliance with the preparation examples were diluted with water to the prescribed amount of chemical and uniformly sprayed onto each soil surface layer using 10 liters of sprayed water per are prior to weed growth following seeding.
as §4
(§9) Evaluation of herbicidal efficacy was carried out in the same manner as the above-mentioned Test Example 1.

[3] = system: Amaranthus retroflexus; test: Farming soil treatment test; format: in vivo; conditions: soil surface spray prior to weed growth, 30 days
Procedure: as §6, §7, §8, §4, §9

[4] = system: Digitaria ciliaris; test: Farming soil treatment test; format: in vivo; conditions: soil surface spray prior to weed growth, 30 days
Procedure: as §6, §7, §8, §4, §9

[5] = system: Monochoria vaginalis; test: Paddy herbicidal activity test; format: in vivo; conditions: irrigated paddy pot, 30 days
Procedure: as §1, §2, §3, §4, §5

[6] = system: Scirpus juncoides; test: Paddy herbicidal activity test; format: in vivo; conditions: irrigated paddy pot, 30 days
Procedure: as §1, §2, §3, §4, §5

[7] = system: Echinochloa crus-galli; test: Paddy herbicidal activity test; format: in vivo; conditions: irrigated paddy pot, treated at 3.5 leaf stage of Echinochloa crus-galli, 30 days
Procedure: as §1, §2, §3, §4, §5

[8] = system: Chenopodium album; test: Weed foliar treatment test; format: in vivo; conditions: foliar spray, 3 weeks
Procedure: (§10) 3. Weed Foliar Treatment Test
(§11) Soil was filled into a 1/6000 are pot followed by seeding with Digitaria ciliaris, Chenopodium album and Amaranthus retroflexus, covering with soil, and cultivating in a glass greenhouse at an average atmospheric temperature of 25° C.
(§12) Wettable powder of Target Compound (I) shown in Table 1 prepared in compliance with the preparation examples were diluted with water to the prescribed amount of chemical and uniformly sprayed onto the weeds using 15 liters of sprayed water per are when Digitaria ciliaris had grown to the 1.0 to 2.0 leaf stage.
(§13) After treating for 3 weeks in a glass greenhouse at an average atmospheric temperature of 25° C., the herbicidal efficacy thereof was investigated.
as §9

[9] = system: Amaranthus retroflexus; test: Weed foliar treatment test; format: in vivo; conditions: foliar spray, 3 weeks
Procedure: as §10, §11, §12, §13, §9

[10] = system: Digitaria ciliaris; test: Weed foliar treatment test; format: in vivo; conditions: foliar spray at 1.0 to 2.0 leaf stage of Digitaria ciliaris, 3 weeks
Procedure: as §10, §11, §12, §13, §9

SMILES | phytotoxicity (growth inhibition rate level) Rice plants ([1]; 1g a.i./10a) | phytotoxicity (growth inhibition rate level) Rice plants ([1]; 5g a.i./10a) | herbicidal efficacy (growth inhibition rate level) Chenopodium album ([2]; 5g a.i./10a) | herbicidal efficacy (growth inhibition rate level) Chenopodium album ([2]; 10g a.i./10a) | herbicidal efficacy (growth inhibition rate level) Amaranthus retroflexus ([3]; 5g a.i./10a) | herbicidal efficacy (growth inhibition rate level) Amaranthus retroflexus ([3]; 10g a.i./10a) | herbicidal efficacy (growth inhibition rate level) Digitaria ciliaris ([4]; 5g a.i./10a) | herbicidal efficacy (growth inhibition rate level) Digitaria ciliaris ([4]; 10g a.i./10a) | herbicidal efficacy (growth inhibition rate level) Monochoria vaginalis ([5]; 1g a.i./10a) | herbicidal efficacy (growth inhibition rate level) Monochoria vaginalis ([5]; 5g a.i./10a) | herbicidal efficacy (growth inhibition rate level) Scirpus juncoides ([6]; 1g a.i./10a) | herbicidal efficacy (growth inhibition rate level) Scirpus juncoides ([6]; 5g a.i./10a) | herbicidal efficacy (growth inhibition rate level) Echinochloa crus-galli ([7]; 1g a.i./10a) | herbicidal efficacy (growth inhibition rate level) Echinochloa crus-galli ([7]; 5g a.i./10a) | herbicidal efficacy (growth inhibition rate level) Chenopodium album ([8]; 5g a.i./10a) | herbicidal efficacy (growth inhibition rate level) Chenopodium album ([8]; 10g a.i./10a) | herbicidal efficacy (growth inhibition rate level) Amaranthus retroflexus ([9]; 5g a.i./10a) | herbicidal efficacy (growth inhibition rate level) Amaranthus retroflexus ([9]; 10g a.i./10a) | herbicidal efficacy (growth inhibition rate level) Digitaria ciliaris ([10]; 5g a.i./10a) | herbicidal efficacy (growth inhibition rate level) Digitaria ciliaris ([10]; 10g a.i./10a) | further results
N#Cc1cnn(-c2nn3c(c2Cl)CCCC3)c1N(CCCl)C(=O)C(F)(F)F [Compound 1, N-(2-chloroethyl)-N-(1-(3-chloro-4,5,6,7-tetrahydropyrazolo[1,5-a]pyridin-2-yl)-4-cyanopyrazol-5-yl)-2,2,2-trifluoroacetamide] | 0 (0 (exponent): 0% to less than 10% (growth inhibition rate)) | 1 (10% to less than 20%) | 10 (100%) | 10 (100%) | 10 (100%) | 10 (100%) | 10 (100%) | 10 (100%) | 8 (80% to less than 90%) | 9 (90% to less than 100%) | 9 (90% to less than 100%) | 10 (100%) | 9 (90% to less than 100%) | 10 (100%) | 10 (100%) | 10 (100%) | 10 (100%) | 10 (100%) | 10 (100%) | 10 (100%) | melting point: 87 to 89 °C
COCCN(C(=O)C(F)(F)F)c1c(C#N)cnn1-c1nn2c(c1Cl)CCCC2 [Compound 2, N-(1-(3-chloro-4,5,6,7-tetrahydropyrazolo[1,5-a]pyridin-2-yl)-4-cyanopyrazol-5-yl)-N-(2-methoxyethyl)-2,2,2-trifluoroacetamide] | 0 (0 (exponent): 0% to less than 10% (growth inhibition rate)) | 1 (10% to less than 20%) | 10 (100%) | 10 (100%) | 10 (100%) | 10 (100%) | 10 (100%) | 10 (100%) | 8 (80% to less than 90%) | 9 (90% to less than 100%) | 9 (90% to less than 100%) | 9 (90% to less than 100%) | 9 (90% to less than 100%) | 9 (90% to less than 100%) | 10 (100%) | 10 (100%) | 10 (100%) | 10 (100%) | 10 (100%) | 10 (100%) | melting point: 102 to 103 °C
CN(C(=O)C(F)(F)F)c1c(C#N)cnn1-c1nn2c(c1Cl)CCCC2 [Control agent 4.237] | 1 (10% to less than 20%) | 2 (20% to less than 30%) | 4 (40% to less than 50%) | 4 (40% to less than 50%) | 5 (50% to less than 60%) | 5 (50% to less than 60%) | 4 (40% to less than 50%) | 5 (50% to less than 60%) | 2 (20% to less than 30%) | 3 (30% to less than 40%) | 2 (20% to less than 30%) | 4 (40% to less than 50%) | 1 (10% to less than 20%) | 4 (40% to less than 50%) | 4 (40% to less than 50%) | 5 (50% to less than 60%) | 4 (40% to less than 50%) | 6 (60% to less than 70%) | 5 (50% to less than 60%) | 6 (60% to less than 70%) | –
CCN(C(=O)C(F)(F)F)c1c(C#N)cnn1-c1nn2c(c1Cl)CCCC2 [Control agent 4.238] | 2 (20% to less than 30%) | 2 (20% to less than 30%) | 4 (40% to less than 50%) | 5 (50% to less than 60%) | 4 (40% to less than 50%) | 5 (50% to less than 60%) | 5 (50% to less than 60%) | 6 (60% to less than 70%) | 0 (0 (exponent): 0% to less than 10% (growth inhibition rate)) | 1 (10% to less than 20%) | 2 (20% to less than 30%) | 3 (30% to less than 40%) | 2 (20% to less than 30%) | 4 (40% to less than 50%) | 4 (40% to less than 50%) | 6 (60% to less than 70%) | 5 (50% to less than 60%) | 6 (60% to less than 70%) | 4 (40% to less than 50%) | 5 (50% to less than 60%) | –
